Each structure is given as a SMILES string.

The nature of this data set: Testing of biodegradable polymers as microneedle matrix (physical stability, release, chemical stability of active ingredient). Format: physicochemical. How it is done:
In the course of research leading to the present invention, a large number of different biodegradable polymers were tested for their suitability to form a matrix from which the microneedles could be made.

Take `C=C1/C(=C\C=C2/CCC[C@]3(C)[C@@H]([C@H](C)/C=C/[C@@H](O)C4CC4)CC[C@@H]23)C[C@@H](O)C[C@@H]1O` [calcipotriol]: the “chemical stability of calcipotriol” value is on record as “chemically stable” (ester-terminated polylactide, polyglycolide or polylactide co-glycolide as the biodegradable polymer) and “not chemically stable” (in a matrix of polylactic acid, polyglycolic acid or polylactic co-glycolic acid).
